Measured values taken from US10047112B2, “Fluorescent labeled inhibitors” (priority 2014, dated 2018).
pIC50: −log10 of the molar value. Like-named read-outs stand apart in the source and are kept apart here.

How the values were obtained:
M. tb H37Rv-GFP [1] = experiment: microbe, parasite or virus in culture; assay type: cell-based; conditions: Mycobacterium tuberculosis, RAW264.7, 120 h, read-out: Intracellular macrophage growth IC50
in vitro = conditions: mouse
M. tb H37Rv-GFP [2] = experiment: microbe, parasite or virus in culture; assay type: cell-based; conditions: Mycobacterium tuberculosis, 120 h, read-out: Extracellular growth IC50

Row | SMILES | pIC50 (M. tb H37Rv-GFP [1]) | CC50 (in vitro) | pIC50 (M. tb H37Rv-GFP [2])
1 | CCc1cc(C(N)=S)ccn1 [Ethionamide] | 5.22 | 120 µM | 5.22
2 | NNC(=O)c1ccncc1 [Isoniazid] | 5.92 | > 150 µM | 5.92
3 | CO[C@H]1/C=C/O[C@@]2(C)Oc3c(C)c(O)c4c(O)c(c(/C=N/N5CCN(C)CC5)c(O)c4c3C2=O)NC(=O)/C(C)=C\C=C\[C@H](C)[C@H](O)[C@@H](C)[C@@H](O)[C@@H](C)[C@H](OC(C)=O)[C@@H]1C [Rifampin] | 5.54 | 24 µM | 8.00
